Among the test systems are SF-268; T47D; PC-3; SW-620; MDA-MB-231; UACC-257; OVCAR-4; NCI-H226; SK-MEL-5; OVCAR-5; U-251; KM12; NCI-H522; SK-MEL-28; ACHN; HL-60.
Holding throughout (experiment): NCI tumour cell line growth inhibition, 48 h

SMILES strings stand for the structures.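 In this assay, cells in 96-well plates receive the compound at five concentrations for 48 hours. Endpoints are linearly interpolated between the surrounding concentrations. GI50 marks 50% less growth.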 The source made the active and inactive calls. Cut-off read from the data, not from the text of the source: active = GI50 up to about 1.1 µM and inactive = higher.

With `CC1=C[C@H](O)[C@@]2(C)[C@@H]([C@@H]1C)[C@H]1CC[C@@H]3[C@@]4(C)CC[C@H](O)C(C)(C)[C@@H]4CC[C@@]3(C)[C@]1(C)C[C@@H]2O`, the GI50 in the test on SF-268 was 10.5 µM (inactive); in the test on T47D, 14.3 µM (inactive); in the test with PC-3, 20.6 µM (inactive); in the test with SW-620, 22.1 µM (inactive); in the test with MDA-MB-231 it was 20.3 µM (inactive); in the test on UACC-257 it was 20.1 µM (inactive). In addition, the GI50 is 17.9 µM (inactive) in the test with OVCAR-4; 23.1 µM (inactive) in the test on NCI-H226; 16.5 µM (inactive) with SK-MEL-5; 15.6 µM (inactive) with OVCAR-5; 20 µM (inactive) in the test on U-251; 22.1 µM (inactive) in the test with KM12. The GI50 was 17.9 µM (inactive) in the test with NCI-H522 and 18.3 µM (inactive) in the test with SK-MEL-28.

As for `Nc1nc(SCCc2ccccc2)c2nc[nH]c2n1`, the GI50 with SF-268 was 46.6 µM (inactive); in the test with T47D, 40.9 µM (inactive); in the test on ACHN, 35.7 µM (inactive); with PC-3, 38.9 µM (inactive); in the test with SW-620, 76.9 µM (inactive); with MDA-MB-231, 51.1 µM (inactive). The GI50 in the test on UACC-257 was 23.7 µM (inactive); with OVCAR-4, > 100 µM (inactive); in the test on NCI-H226, 61.9 µM (inactive); with SK-MEL-5, 45.1 µM (inactive); with OVCAR-5, 72.3 µM (inactive); with U-251, 58.5 µM (inactive). Besides, the GI50 in the test with KM12 was > 100 µM (inactive); with NCI-H522, 66.2 µM (inactive); in the test with SK-MEL-28, 58.9 µM (inactive).

In the case of `O=C(O)C1CC2(C1)CC(C(=O)O)C2` (stereo unspecified), the GI50 with T47D, in the test with ACHN, in the test on PC-3, with SW-620, with MDA-MB-231 and in the test on UACC-257 was > 100 µM (inactive) throughout. In addition, the GI50 in the test on OVCAR-4, in the test on SK-MEL-5, in the test with OVCAR-5, in the test on U-251, in the test on KM12 and in the test with NCI-H522 was > 100 µM (inactive) throughout. Also, the GI50 with SK-MEL-28 is > 100 µM (inactive).

In the case of `COc1ccc2c(c1)CCc1c-2n(CCN2CCOCC2)c2ccc(OC)cc12`, the GI50 was > 100 µM (inactive) in the test on SF-268; > 100 µM (inactive) in the test with T47D; 82.2 µM (inactive) with ACHN; 63.2 µM (inactive) in the test on PC-3; 48.8 µM (inactive) with SW-620; > 100 µM (inactive) in the test on MDA-MB-231. The GI50 was > 100 µM (inactive) with UACC-257; > 100 µM (inactive) with OVCAR-4; 25.5 µM (inactive) with NCI-H226; 54.7 µM (inactive) in the test on SK-MEL-5; > 100 µM (inactive) in the test with OVCAR-5; > 100 µM (inactive) with U-251. Moreover, the GI50 in the test with KM12 was 18.8 µM (inactive); in the test on NCI-H522, > 100 µM (inactive); with SK-MEL-28, > 100 µM (inactive).

On to `CCCCCCCCCCCCCCCCCCNC(=O)C(N)Cc1ccc(OCc2ccccc2)cn1` (stereo unspecified), for which the GI50 is 21.9 µM (inactive) with SF-268; 20.4 µM (inactive) in the test with T47D; 24.1 µM (inactive) in the test on ACHN; 14.2 µM (inactive) in the test with PC-3; 23.2 µM (inactive) in the test on SW-620; 20.9 µM (inactive) with MDA-MB-231. The GI50 with UACC-257 is 19.1 µM (inactive); in the test on OVCAR-4, 17.2 µM (inactive); in the test with HL-60, 15.7 µM (inactive); in the test with SK-MEL-5 it was 18 µM (inactive); with OVCAR-5, 21.1 µM (inactive); in the test on U-251, 18.5 µM (inactive). In addition, the GI50 with KM12 was 18.6 µM (inactive); in the test with NCI-H522, 18.7 µM (inactive); in the test on SK-MEL-28, 24.1 µM (inactive).

As for `CC(C)=NNc1snnc1C(N)=O`, the GI50 is > 100 µM (inactive) with SF-268; > 100 µM (inactive) with T47D; > 100 µM (inactive) in the test with ACHN; > 100 µM (inactive) in the test with PC-3; > 10 µM (inactive) in the test with SW-620; > 100 µM (inactive) in the test on MDA-MB-231. The GI50 with UACC-257, with HL-60, in the test with NCI-H226, with SK-MEL-5, with OVCAR-5 and with U-251 was > 100 µM (inactive) throughout. The GI50 with KM12, with NCI-H522 and in the test on SK-MEL-28 was > 100 µM (inactive) each time.

As for `COC(=O)C1(CCC(C)=O)CCCCCC1=O` (stereo unspecified), the GI50 in the test on SF-268, in the test with T47D, in the test with ACHN, in the test on PC-3, in the test with SW-620 and in the test on MDA-MB-231 was > 100 µM (inactive) in each case. The GI50 in the test with UACC-257, with OVCAR-4, in the test on NCI-H226, with SK-MEL-5, in the test with OVCAR-5 and with U-251 was > 100 µM (inactive) in each case. Further, the GI50 with KM12, in the test on NCI-H522 and in the test on SK-MEL-28 was > 100 µM (inactive) throughout.

As for `O=C(Nc1ccccc1)c1cc2ccccc2c(/N=N\c2cccc([N+](=O)[O-])c2)c1O`, the GI50 in the test on SF-268 was 48.6 µM (inactive); with T47D, > 100 µM (inactive); in the test with ACHN it was 31 µM (inactive); with PC-3, > 100 µM (inactive); in the test with SW-620 it was > 100 µM (inactive); in the test with MDA-MB-231, 56.8 µM (inactive). The GI50 in the test with UACC-257 was > 100 µM (inactive); in the test on OVCAR-4 it was 97.5 µM (inactive); in the test with NCI-H226, > 100 µM (inactive); with SK-MEL-5, > 100 µM (inactive); with OVCAR-5, > 100 µM (inactive); with U-251 it was 24.6 µM (inactive). Moreover, the GI50 in the test with KM12 was > 100 µM (inactive); in the test with NCI-H522 it was 5.56 µM (inactive); in the test on SK-MEL-28, 94.4 µM (inactive).

For the compound `CCCCn1c2c(n(CCCC)c1=S)-c1c(n(CCCC)c(=S)n1CCCC)S[Se][Se]S2`, the GI50 in the test with SF-268 is 7.13 µM (inactive); with T47D, 0.294 µM (active); with ACHN, 2.67 µM (inactive); with PC-3, 2.26 µM (inactive); in the test on SW-620, 0.778 µM (active); with MDA-MB-231, 2.33 µM (inactive). The GI50 with UACC-257 is 8.87 µM (inactive); with OVCAR-4, 0.815 µM (active); with NCI-H226, 14.6 µM (inactive); in the test with SK-MEL-5, 5.85 µM (inactive); in the test on OVCAR-5, 2.17 µM (inactive); in the test with U-251, 4.37 µM (inactive). Moreover, the values for the GI50 in the test with KM12, with NCI-H522 and in the test on SK-MEL-28 were 18.7 µM (inactive), 0.171 µM (active) and 16.6 µM (inactive), respectively.

For `COc1cc([C@@H]2c3cc4c(cc3[C@H](OC3OC5COC(c6ccco6)OC5C(O)C3O)C3COC(=O)[C@@H]32)OCO4)cc(OC)c1OC` (stereo partly specified), the GI50 in the test on SF-268 was 8.2 µM (inactive); in the test with T47D it was 13.4 µM (inactive); in the test on ACHN, 4.6 µM (inactive); with PC-3, 3.48 µM (inactive); in the test with SW-620 it was 3.5 µM (inactive); in the test with MDA-MB-231 it was 4.43 µM (inactive). Further, the GI50 was 5.24 µM (inactive) in the test on UACC-257; 41.6 µM (inactive) in the test on OVCAR-4; 4.05 µM (inactive) in the test with HL-60; 4.17 µM (inactive) with NCI-H226; 4.21 µM (inactive) with SK-MEL-5; 7.66 µM (inactive) in the test on OVCAR-5. Also, the values for the GI50 in the test on U-251, in the test with KM12 and with NCI-H522 were 3.18 µM (inactive), 4.48 µM (inactive) and 8.34 µM (inactive), respectively.

For the compound `O=c1oc2ccc(Cl)cc2cc1-c1cn2ccsc2n1`, the GI50 is 46.6 µM (inactive) with SF-268; 34.5 µM (inactive) with T47D; 60.5 µM (inactive) in the test with ACHN; 52.6 µM (inactive) in the test on PC-3; 59.7 µM (inactive) in the test on SW-620; 24.6 µM (inactive) in the test on MDA-MB-231. The GI50 in the test on UACC-257 was 95.1 µM (inactive); with OVCAR-4, 33.4 µM (inactive); with HL-60 it was 32.3 µM (inactive); in the test on SK-MEL-5, 51.1 µM (inactive); with U-251 it was 51.9 µM (inactive); in the test on KM12, 42.4 µM (inactive). The GI50 in the test on NCI-H522 was 21 µM (inactive); with SK-MEL-28, > 100 µM (inactive).

On to `COC(=O)CCCC(=O)O`, for which the GI50 in the test with SF-268, in the test with T47D, in the test with ACHN, with PC-3, in the test on SW-620 and in the test on MDA-MB-231 was > 100 µM (inactive) in each case. Besides, the GI50 in the test with UACC-257, in the test on OVCAR-4, in the test on NCI-H226, with SK-MEL-5, with OVCAR-5 and with U-251 was > 100 µM (inactive) in each case. Besides, the GI50 with KM12, in the test on NCI-H522 and with SK-MEL-28 was > 100 µM (inactive) in each case.

As for `C=CC[C@]1(/C=N/O)CN(S(=O)(=O)CC[Si](C)(C)C)C[C@H]2CC=CC[C@H]21`, the GI50 is 32.9 µM (inactive) in the test on SF-268; 26.4 µM (inactive) in the test with T47D; > 10 µM (inactive) in the test on ACHN; 17.6 µM (inactive) in the test with PC-3; 18.1 µM (inactive) in the test with SW-620; 24.4 µM (inactive) in the test with MDA-MB-231. In addition, the GI50 in the test with UACC-257 is 21.2 µM (inactive); with OVCAR-4 it was 14.8 µM (inactive); in the test on NCI-H226, 19.5 µM (inactive); in the test with SK-MEL-5, 29.4 µM (inactive); in the test on OVCAR-5 it was 21.7 µM (inactive); in the test on U-251, 17.7 µM (inactive). Moreover, the GI50 in the test on KM12 was 24.6 µM (inactive); in the test with NCI-H522, 15.8 µM (inactive); with SK-MEL-28, 22.6 µM (inactive).

These data come from ChEMBL document CHEMBL1201862, “PubChem BioAssay data set” (2004).
